Source: US8853219B2, “Compounds and compositions for cognition-enhancement, methods of making, and methods of treating” (NeuroSolis, Inc., priority 2010, dated 2014)

Legend:
[1] = biological target: T1, human muscarinic M1 receptors (Homo sapiens, UniProt P11229); test: Stimulation of inositol phosphate production in A9L cells, human M1 (IPOne TR-FRET); type: cell-based; conditions: huM1/A9L versus huM3/A9L
T1 construct: host or cells: A9L cells
T1 sequence (P11229 1-460): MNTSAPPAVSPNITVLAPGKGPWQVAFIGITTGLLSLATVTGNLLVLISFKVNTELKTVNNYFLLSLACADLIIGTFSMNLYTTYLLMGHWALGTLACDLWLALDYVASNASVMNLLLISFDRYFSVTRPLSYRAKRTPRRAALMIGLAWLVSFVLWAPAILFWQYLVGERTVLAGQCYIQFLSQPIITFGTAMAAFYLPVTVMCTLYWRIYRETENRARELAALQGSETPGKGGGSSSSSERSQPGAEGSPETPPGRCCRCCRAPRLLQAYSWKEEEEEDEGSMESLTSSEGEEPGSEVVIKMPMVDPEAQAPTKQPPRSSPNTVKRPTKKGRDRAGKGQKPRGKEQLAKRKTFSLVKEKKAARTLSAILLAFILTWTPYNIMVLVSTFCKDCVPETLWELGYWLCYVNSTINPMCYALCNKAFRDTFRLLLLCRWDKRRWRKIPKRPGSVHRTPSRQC

[2] = PAMPA test
[3] = tested on: pooled male Sprague-Dawley rat liver microsomes; test: Metabolism by rat liver microsomes; type: in vitro ADME; conditions: 6 hours incubation
Experimental: (§1) Compounds were incubated with pooled male Sprague-Dawley rat liver microsomes (BD Biosciences, #452501) and an NADP-regenerating system in a phosphate buffer (pH 7.4) for a total of 6 hours. Aliquots were removed every 2 hours, and 1% formic acid was added to halt the reaction. Samples were centrifuged, filtered through 0.2 micron spinfilter and the amount of each compound in the supernatants was quantitated using LC/MS/MS.

[4] = tested on: pooled male human liver microsomes; test: Metabolism by human liver microsomes; type: in vitro ADME; conditions: 6 hours incubation
Experimental: as §1, with “human” for “Sprague-Dawley rat”, “#452172)” for “#452501)”

[5] = Delivery of MCD-386 in rats by iontophoresis patch versus oral gavage: plasma concentration; type: in vivo; conditions: rat
Experimental: Two patches were made up, consisting (in order from the outer layer to the skin contacting surface, respectively): adhesive tape (Transpore, 27 mm wide, 3M), circular stainless steel electrodes (22 mm dia) with a central hole for a stainless steel machine screw to which the electrode wire was attached, and 2 layers of 3mM CHR filter paper (Cat #3030-861, Whatman International, Ltd).
The mid-dorsal area of a Long Evans Hooded rat (approximate weight, 320 grams), surgically prepared with a jugular vein catheter (Charles River), was shaved and the skin was then cleaned using an Electrode Prep Pad (Professional Disposables, Inc, Cat #B59800). […]
Blood (400 μl) was withdrawn from the catheters in each rat every 30 minutes, transferred to 1.5 ml centrifuge tubes containing heparin (15 units/tube), and the plasma was separated by centrifugation from the cellular components. The plasma samples were maintained at 4 deg C. until analyzed. […]
The ultra-filtrates were subjected to reverse-phase liquid chromatography using a 150×2.1 mm Agilent C8 reverse-phase column on a Shimadzu Prominence LC, eluting the MCD-386 with an isocratic flow of 2% acetonitrile+0.1% formic acid. The concentration of MCD-386 in the column effluent was measured using an Applied Biosystems API-3200 triple quadrupole mass spectrometer equipped with a Turbo V source (electrospray sample injection) system. […]

[6] = Blood and brain concentrations (rats) after oral gavage; type: in vivo, rat; conditions: rat brain, 10 mg/kg po, 1 hr, relative to MCD-386
Experimental: Long-Evans Hooded rats (Charles River: male, 250-350 g) were dosed with solutions of test compounds in PBS by oral gavage. At the desired time after dosing, the animals were anesthetized with isoflurane, and then euthanized by cervical dislocation. Blood was obtained by cardiac puncture, transferred to a 1.5 mL microcentrifuge tube containing 15U Heparin, and the plasma recovered after centrifugation. Brains were dissected, weighed, immediately chilled to 4° C., and homogenized using a PowerGen 125 homogenizer in five volumes of ice-cold 2% formic acid. Proteins were precipitated from plasma and brain homogenate with two and five volumes respectively of ice-cold 2% formic acid and clarified by centrifugation. The supernatant was ultra-filtered by centrifugation through a 3K MWCO spin column (Pall Life Sciences), following the manufacturer's instructions. The concentration of compound in the ultra-filtrate was subjected to reverse-phase liquid chromatography using a 150×2.1 mm Agilent C8 reverse-phase column on a Shimadzu Prominence LC, eluting the compounds with a gradient of 2% to 50% of acetonitrile+0.1% formic acid for compound MI-50,382, or an isocratic flow of 2% acetonitrile+0.1% formic acid for the rest of the compounds listed. The concentration of the compound in the column effluent was measured using an Applied Biosystems API-3200 triple quadrupole mass spectrometer equipped with an electrospray sample injection system. The counts of the characteristic parent and product ions of each test compound were converted to concentration units by comparison with a standard calibration curve.

SMILES | Selectivity for M1 versus M3 receptors [1] | PAMPA units [2] | Metabolism in rat liver microsomes [3] | Metabolism in human liver microsomes [4] | Bioavailability by transdermal delivery versus oral administration [5] | Brain Cmax (10 mg/kg po) 1 hr MCD-386 = 1.00 [6]
Cc1noc(C2=CCCN(C)C2)n1 [Compound 36, 3-methyl-5-(1-methyl-1,2,5,6-tetrahydropyridin-3-yl)-1,2,4-oxadiazole, reference compound] | some selectivity for M1 versus M3 receptors | 12.75 | nearly completely metabolized | nearly completely metabolized | – | –
CCc1noc(C2CN=CNC2)n1 (stereo not shown) [MCD-386, 5-(3-ethyl-1,2,4-oxadiazol-5-yl)-1,4,5,6-tetrahydropyrimidine] | – | 0.05 | – | – | up to three times higher | 1.00
